Usually kinact stands for the maximal first-order rate at which the target is inactivated. What is called kinact/KI is the second-order rate constant of inactivation. As a reminder, the GI50 is the concentration at which growth is held to half of that of the control.

The values that follow come from article PMC12794186, “Covalent Alkynylpyridopyrimidinones Targeting Cysteine 775 of the Epidermal Growth Factor Receptor Overcome Resistance to Current Therapies” (Journal of Medicinal Chemistry, 2025).

Like-named read-outs stand apart in the source and are kept apart here.

One assay concerns the target T1, wild-type EGFR (WT-EGFR) (Homo sapiens, UniProt P00533).
T1 construct: made in house; host or cells: SF9 insect cells (MultiBac)
Briefly: TR-FRET fluorescent probe displacement assay. The format is binding. How it is done: Compounds (dissolved to 100 mM in DMSO) were dispensed into black low volume 384 well assay plates (Corning) over a final concentration range of 100,000, 30,000, 10,000, 3000, 1000, 300, 100, 30, 10, and 3 nM using an Echo 550 (Labcyte). Positive control compound and DMSO as a negative control were dispensed into the first and last well, respectively. Each well was backfilled with DMSO to a final volume of 200 nL, resulting in final assay DMSO concentrations of 1%. […] The data were analyzed using Graphpad Prism/Dotmatics Studies Software. Assays conducted in technical replicate and repeated as a biological duplicate.
(In general: In TR-FRET formats the signal depends on donor and acceptor labels being close together.)

For another assay, the target named is mLTC-EGFR (Homo sapiens, UniProt P00533, C797S/L858R/T790M). The assay can be described thus: Intact protein mass spectrometry, covalent adduct formation. It is filed as binding. The note with it: for covalent adduct formation, in words: intact protein mass spectrometry; for Protein adduct formation: adduct stoichiometry by intact protein mass spectrometry.
In assay [1] the test system is EGFR phosphorylation (Tyr1068) in H1975 (L858R, T790M) cells. Briefly: HTRF cellular EGFR phosphorylation. The settings on record: Homo sapiens, NCI-H1975; read-out: pEGFR IC50 by HTRF. The format is cell-based. How it is done:
Cells were plated at 20,000 cells per well in 96-well plates and placed at 37 °C with 5% CO2. Compounds were reconstituted in DMSO. Once adhered (after 24 h), cells were treated with compounds at a final concentration of 0.1% DMSO in media. Compounds were added to duplicate wells and incubated 37 °C for 3 h with 5% CO2. For A431 cells 0.5 h before the end of incubation; 100 ng/mL of EGF (Thermo Fisher, Cat. No. PHG0311) was added to all compound-treated cells as well as control. Compound and media were removed from the cells, and then 50 μL of HTRF lysis buffer was added (lysis buffer was diluted from 4× stock to 1× in deionized (DI) water, with 1% blocking agent also added). Cells were lysed on a plate shaker (2000 rpm) for 30 min at room temperature. pEGFR expression was assessed using the Human Phospho-EGFR (Tyr1068) cellular detection kit (Revvity, Cat. No. 64EG1PEH). Total EGFR expression was monitored using the Human Total EGFR cellular detection kit (Revvity, Cat. No. 64NG1PEH) as per the manufacturer’s instructions. […] Results were calculated as the ratio of pEGFR/total EGFR and then the percentage of 0 μM control.

Assay [2] has the same test system. The assay can be described thus: Western blot of EGFR phosphorylation. The format is cell-based. On the technique in general: In western blotting, separated proteins are transferred to a membrane and probed.
Protocol: Cells, seeded on the previous day, were incubated with test compound at the indicated concentrations or DMSO (0.1%) for 4 h. […] Preparation of lysates and Western blotting was performed twice as independent experiments.
Samples were prepared by diluting lysates in PBS to the desired concentration and before adding 4X XT sample buffer. Samples were then denatured at 98 °C for 5 min and then centrifuged to remove the residue. […] The quality of transfer was assessed using Ponceau S Stain (Sigma-Aldrich Cat. No. p7170).
Loading control antibodies were prepared in 5% milk w/v with 1× TBS/T (0.1 v/v) solution at a determined optimum concentration.
Proteins were detected using Clarity ECL substrate (Bio-Rad) and imaged using a Licor Odyssey FC.
A further assay deals with EGFR. The assay can be described thus: Time-course of EGFR modification by mass spectrometry. The format is binding. The settings on record: within 10 min. The procedure:
Peptides were detected in positive ion mode using electrospray ionization with nebulizer pressure of 35 psi, drying gas flow of 13 L/min and source gas temperature of 290 °C. Sheath gas temperature of 275 °C and gas flow of 12 L/min, capillary voltage of 4000 V and nozzle voltage of 300 V were also applied. Mass spectra were acquired using MassHunter Acquisition software (version B.08.00) over 100–1700 m/z range, at a rate of 5 spectra/s and 200 ms/spectrum, using standard mass range mode (3200 m/z) with extended dynamic range (2 GHz) and collection of both centroid and profile data. MS/MS fragmentation spectra were acquired over 100–3000 m/z range, at a rate of 3 spectra/s and 333.3 ms/spectrum. Acquired MS and MS/MS spectra were analyzed using Agilent MassHunter BioConfirm software (version B.10.00) against known amino acid sequences for EGFR for confirmation of covalent binding at Cys775. For the time course study, 150 μL EGFR (0.15 mg/mL) was incubated with compound 25328 to final concentration of 15 μM in a buffer solution of 20 mM Tris pH 8, 150 mM NaCl, 4% glycerol, 1 mM TCEP, 1% DMSO. […] Intact protein analysis perform as detailed above.

For assay [3], the target named is recombinant doubly mutated EGFR L858R, T790M kinase domain (mLT-EGFR) (Homo sapiens, UniProt P00533, L858R/T790M). The assay can be described thus: Kinetic analysis (AssayQuant). It is filed as biochemical. The settings on record: for Ki: read-out: KI app. How it is done:
Measurement of K I, K inact and K inact/K I was carried out by AssayQuant Technologies inc.

A further assay deals with BAF EGFR L858R cells. The note with it: BAF EGFR cell line; published compound, reference number not given; cited from earlier work.
Assay [4] concerns BAF EGFR L858R/C775S cells. The settings on record: BAF EGFR cell line; published compound, reference number not given; cited from earlier work.
[5] abbreviates: TR-FRET, read-out: WT-EGFR IC50.
Where [6] appears, read: supplementary csv, read-out: WT pIC50 (converted).
Setting [7] is: TR-FRET, n > 3, read-out: WT-EGFR IC50.
The mark [8] stands for this setting: TR-FRET, n > 3, read-out: WT-EGFR pIC50 ± std dev (converted).

With `C#Cc1cc(-c2cnn3ccccc23)nc(Nc2ccccc2)n1` [Compound 2, 4-Ethynyl-N-phenyl-6-(pyrazolo[1,5-a]pyridin-3-yl)pyrimidin-2-amine], the figures for the IC50 at wild-type EGFR (WT-EGFR) (setting [5]) and at wild-type EGFR (WT-EGFR) (setting [6]) were 48 ± 16 µM and 50.1 µM, respectively. For the same molecule, the “covalent adduct formation, in words” value at mLTC-EGFR is “addition of a single adduct by mass spectrometry and a small amount of double adduct”.

Take `C#Cc1cc(=O)n(-c2ccccc2)c2nc(Nc3ccccc3OC)ncc12` [Compound 3, 5-Ethynyl-2-[(2-methoxyphenyl)amino]-8-phenylpyrido[2,3-d]pyrimidin-7-one]: the IC50 in assay [1] was greater than 3000 nM. Moreover, in assay [2] (H1975, 10 μM, 4 h), the “inhibition of pEGFR (Western blot)” value is “showed inhibition of pEGFR”. Besides, in the assay with EGFR, the protein modified result is recorded as “Over 50%”.

For the molecule `C#Cc1cc(=O)n(-c2ccccc2)c2nc(Nc3ccc(N4CCOCC4)cc3OC)ncc12` [Compound 5, 5-Ethynyl-2-((2-methoxy-4-morpholinophenyl)amino)-8-phenylpyrido[2,3-d]pyrimidin-7(8H)-one], the IC50 on wild-type EGFR (WT-EGFR) (setting [7]) was 0.057 µM; at wild-type EGFR (WT-EGFR) (setting [8]) it was 0.0631 µM.

For `C#Cc1cc(=O)n(-c2ccccc2)c2nc(Nc3ccc(N4CCOCC4)cc3)ncc12` [Compound 6, 5-Ethynyl-2-((4-morpholinophenyl)amino)-8-phenylpyrido[2,3-d]pyrimidin-7(8H)-one], at wild-type EGFR (WT-EGFR) (setting [7]), the IC50 was found to be 0.069 µM. The IC50 on wild-type EGFR (WT-EGFR) (setting [8]) is 0.0631 µM. In addition, in assay [3], the kinact stood at 0.0061 ± 0.00035 s⁻¹, the kinact/KI came out at 3.7e+08 ± 3.8e+06 M⁻¹ s⁻¹ and the Ki came out at 16 ± 1.1 nM.

As to `C#Cc1cc(=O)n(-c2ccccc2)c2nc(Nc3ccc(N4CCN(C)CC4)cc3OC)ncc12` [Compound 8, 5-Ethynyl-2-(2-methoxy-4-(4-methylpiperazine-1-ylphenyl)amino)-8-phenylpyrido[2,3-d]pyrimidin-7(8H)-one], the IC50 at wild-type EGFR (WT-EGFR) (setting [7]), on wild-type EGFR (WT-EGFR) (setting [8]) and on wild-type EGFR (WT-EGFR) (setting [6]) was 0.1 µM in each case.

On to `C#Cc1cc(=O)n(-c2ccccc2)c2nc(Nc3ccc(N4CCN(C)CC4)cc3)ncc12` [Compound 9, 5-Ethynyl-2-((4-(4-methylpiperazin-1-yl)phenyl)amino)-8-phenylpyrido[2,3-d]pyrimidin-7(8H)-one], for which the IC50 at wild-type EGFR (WT-EGFR) (setting [7]) worked out at 0.077 µM. The IC50 at wild-type EGFR (WT-EGFR) (setting [8]) is 0.0794 µM. In assay [3], the kinact was 0.02 ± 0.0041 s⁻¹, the kinact/KI worked out at 8.2e+08 ± 8.3e+06 M⁻¹ s⁻¹ and the Ki turned out to be 24 ± 5.2 nM.

For the molecule `C#Cc1cc(=O)n(-c2ccccc2)c2nc(Nc3ccc(N(C)C(=O)COC)cc3OC)ncc12` [Compound 10, N-(4-((5-Ethynyl-7-oxo-8-phenyl-7,8-dihydropyrido[2,3-d]pyrimidin-2-yl)amino)-3-methoxyphenyl)-2-methoxy-N-methylacetamide], the IC50 at wild-type EGFR (WT-EGFR) (setting [7]) stood at 3.3 µM. Moreover, the IC50 on wild-type EGFR (WT-EGFR) (setting [8]) was 3.16 µM. In assay [3], the kinact is 0.0035 ± 0.00072 s⁻¹, the kinact/KI was 1.8e+07 ± 480000 M⁻¹ s⁻¹ and the Ki was 200 ± 45 nM.

Turning to `C#Cc1cc(=O)n(-c2ccccc2)c2nc(Nc3ccc(N(C)C(=O)CCOC)cc3OC)ncc12` [Compound 11, N-(4-((5-Ethynyl-7-oxo-8-phenyl-7,8-dihydropyrido[2,3-d]pyrimidin-2-yl)amino)-3-methoxyphenyl)-3-methoxy-N-methylpropanamide], the IC50 at wild-type EGFR (WT-EGFR) (setting [7]) was 4.1 µM; on wild-type EGFR (WT-EGFR) (setting [8]), 3.16 µM.

`C#Cc1cc(=O)n(-c2ccccc2)c2nc(Nc3ccc(N(C)C(=O)CN(C)C)cc3OC)ncc12` [Compound 12, 2-(Dimethylamino)-N-(4-((5-ethynyl-7-oxo-8-phenyl-7,8-dihydropyrido[2,3-d]pyrimidin-2-yl)amino)-3-methoxyphenyl)-N-methylacetamide]: the IC50 at wild-type EGFR (WT-EGFR) (setting [7]) was found to be 5.1 µM. In addition, at wild-type EGFR (WT-EGFR) (setting [8]), the IC50 is 5.01 µM. In addition, in assay [3], the kinact was 0.0051 ± 0.00061 s⁻¹, the kinact/KI is 3.3e+07 ± 440000 M⁻¹ s⁻¹ and the Ki was found to be 160 ± 20 nM.

`C=CC(=O)Nc1cccc(-c2nn(C)c3ncnc(N)c23)c1` [Compound S1] had a Protein adduct formation at mLTC-EGFR of 1.

For the molecule `C#CC(=O)Nc1cccc(-c2nn(C)c3ncnc(N)c23)c1` [Compound S2], the Protein adduct formation at mLTC-EGFR is 1-3.

For the molecule `C=CC(=O)NCc1cccc(-c2nn(C)c3ncnc(N)c23)c1` [Compound S3], the Protein adduct formation at mLTC-EGFR amounted to 0.

The molecule `C=CC(=O)NCc1cc(=O)n(-c2ccccc2)c2nc(Nc3ccccc3OC)ncc12` [Compound S4] gave a Protein adduct formation on mLTC-EGFR of 0.

With `C#CC(=O)NCc1cc(=O)n(-c2ccccc2)c2nc(Nc3ccccc3OC)ncc12` [Compound S5], at mLTC-EGFR, the Protein adduct formation is 1-2.

Consider `C=CC(=O)NCCOc1ccc(-c2nn(C)c3ncnc(N)c23)cc1` [Compound S7], for which the Protein adduct formation on mLTC-EGFR came out at 0.

Take `C=CC(=O)Nc1ccccc1Oc1ccc(-c2nn(C)c3ncnc(N)c23)cc1` [Compound S8]: the Protein adduct formation at mLTC-EGFR was 0-1.

As for `C#CC(=O)Nc1ccccc1Oc1ccc(-c2nn(C)c3ncnc(N)c23)cc1` [Compound S9], the Protein adduct formation on mLTC-EGFR is on record as 1-4.

In the case of `COc1ccccc1Nc1ncc2ccc(=O)n(-c3ccccc3)c2n1` [Compound S10], the values for the IC50 at wild-type EGFR (WT-EGFR) (setting [8]) and on wild-type EGFR (WT-EGFR) (setting [5]) were 15.8 µM and 15 µM, respectively.

`C=Cc1cc(=O)n(-c2ccccc2)c2nc(Nc3ccccc3OC)ncc12` [Compound S11]: the IC50 on wild-type EGFR (WT-EGFR) (setting [8]) and at wild-type EGFR (WT-EGFR) (setting [5]) was greater than 100 µM each time. Also, the “covalent adduct formation, in words” value on mLTC-EGFR was “reduced protein modulation”.

Regarding `CC#Cc1cc(=O)n(-c2ccccc2)c2nc(Nc3ccccc3OC)ncc12` [Compound S12], the IC50 at wild-type EGFR (WT-EGFR) (setting [8]) and on wild-type EGFR (WT-EGFR) (setting [5]) was greater than 100 µM in each case. The “covalent adduct formation, in words” value at mLTC-EGFR is recorded as “little to no modification”.

For the molecule `C=CC(=O)Nc1cc(C(=O)Nc2nc3cccc(Cl)c3n2[C@@H]2CCCCN(C(=O)C=C)C2)cs1` [dual C775–C797 inhibitor], the results for the GI50 (in the assay on BAF EGFR L858R cells; in assay [4]) were 10 nM and 20 nM, respectively.

Consider `C=CC(=O)Nc1cc(Nc2nccc(-c3cn(C)c4ccccc34)n2)c(OC)cc1N(C)CCN(C)C` [osimertinib, reference compound], for which the “inhibition of EGFR and ERK1/2 phosphorylation (Western blot)” value in assay [2] (H1975, 4 h exposure, concentration series) is “inhibition of EGFR and ERK1/2 phosphorylation was evident”.
